# Patent US6350839B2, “Hydrolysis-stable and polymerizable acrylophosphonic acid monoesters” (Ivoclar Vivadent AG, priority 2000, dated 2002)
# Read-outs that look alike come from different tables or passages of the source.
# Columns and labels:
# Assay type in all cases: physicochemical
# [1] = Solubility of monomer in water and ethanol
# Procedure: (§1) The solubility of monomer 1 in water and ethanol was determined and the pH value of a 20% solution of the monomer in a 1:1 mixture of ethanol and water measured.
# [2] = pH value (acid strength) of a 20% monomer solution; conditions: text: 1:1 mixture of ethanol and water
# Procedure: as §1
# [3] = Hydrolytic stability by weekly 1H-NMR of stored solution; conditions: 20% solution in 1:1 water/ethanol, stored at 37° C., 8-week investigation period
# Procedure: Monomer 1 is dissolved in a 1:1 mixture of water and ethanol and a 20% solution is stored at 37° C. The ^1H-NMR spectrum of the solution is recorded weekly.
# [4] = water, read-out: water solubility
SMILES,solubility in ethanol ([1]; ethanol),"solubility [1, 4]",pH value of a 20% solution [2],"solubility ([1]; ethanol, organic solvent or mixture, read-out: solubility in ethanol)",hydrolytic stability (change in 1H-NMR spectrum) [3]
"C=C(COCCP(=O)(O)O)C(=O)O [Comparison monomer, 2-[4-dihydroxyphosphoryl-2-oxa-butyl]-acrylic acid, reference compound]",practically insoluble,~400 mg/mL,1.25,–,–
"C=C(COCCP(=O)(O)OC)C(=O)O [Monomer 1, 2-[4-hydroxymethoxyphosphoryl-2-oxa-butyl]-acrylic acid]",–,> 500 mg/mL,0.61,> 500 mg/mL,no change in the spectrum
